The source made the active and inactive calls. No rule for the calls is given here.

In this data set the test system is rodent carcinogenicity bioassays, tumor incidence. Nature of the data set: CCRIS carcinogenicity studies. An outline of the steps: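 NCI-built, expert-reviewed records of carcinogenicity and related test outcomes (mutagenicity, tumor promotion/inhibition) compiled from published and report sources, historical span 1985-2011, not updated.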

With `C[C@]12C/C(=C/O)C(=O)C[C@@H]1CC[C@@H]1[C@@H]2CC[C@@]2(C)[C@H]1CC[C@]2(C)O`, the carcinogen call (Species: HUMAN, Route: ORAL, Tumor Site: Type of Lesion: LIVER) is “active; positive”; the carcinogen call (Species: RAT, Strain/Sex: F344/N/FEMALE, Route: GAVAGE, Dose: 0, 3, 30, 100 MG/KG IN 0.5% METHYLCELLULOSE FOR 104 WK (STUDY DURATION: 104 WK), Dose: 0, 3, 30, 100 MG/KG IN 0.5% METHYLCELLULOSE FOR 104 WK (STUDY DURATION: 104 WK), Tumor Site: Type of Lesion: LIVER: HEPATOCELLULAR ADENOMA, HEPATOCELLULAR ADENOMA OR CARCINOMA, LUNG: ALVEOLAR/BRONCHIOLAR ADENOMA, ALVEOLAR/BRONCHI) is “active; positive”; the carcinogen call (Species: RAT, Strain/Sex: F344/N/MALE, Route: GAVAGE, Dose: 0, 3, 30, 150 MG/KG IN 0.5% METHYLCELLULOSE FOR 104 WK (STUDY DURATION: 104 WK), Dose: 0, 3, 30, 150 MG/KG IN 0.5% METHYLCELLULOSE FOR 104 WK (STUDY DURATION: 104 WK), Tumor Site: Type of Lesion: SKIN (SUBCUTANEOUS TISSUE): FIBROMA, FIBROMA OR FIBROSARCOMA, ADRENAL GLAND: BENIGN PHEOCHROMOCYTOMA, BENIGN PHEOCHROMOC) is reported as “equivocal”.

In the case of `c1cc(OCC2CO2)cc(OCC2CO2)c1` (stereo unspecified), the carcinogen call is “active; positive” (Species: MOUSE, Strain/Sex: B6C3F1/FEMALE, Route: GAVAGE, Dose: 0, 50, 100 MG/KG BW IN CORN OIL 5 D/WK FOR 103 WK (STUDY DURATION: 105 WK), Dose: 0, 50, 100 MG/KG BW IN CORN OIL 5 D/WK FOR 103 WK (STUDY DURATION: 105 WK), Tumor Site: Type of Lesion: FORESTOMACH: SQUAMOUS CELL CARCINOMA, SQUAMOUS CELL PAPILLOMA); “active; positive” (Species: MOUSE, Strain/Sex: B6C3F1/FEMALE, Route: GAVAGE, Dose: 0, 50, 100 MG/KG IN CORN OIL 5 D/WK FOR 103 WK (STUDY DURATION: 104-105 WK), Dose: 0, 50, 100 MG/KG IN CORN OIL 5 D/WK FOR 103 WK (STUDY DURATION: 104-105 WK), Tumor Site: Type of Lesion: FORESTOMACH: SQUAMOUS CELL PAPILLOMA, SQUAMOUS CELL CARCINOMA); “active; positive” (Species: MOUSE, Strain/Sex: B6C3F1/MALE, Route: GAVAGE, Dose: 0, 50, 100 MG/KG BW IN CORN OIL 5 D/WK FOR 103 WK (STUDY DURATION: 105 WK), Dose: 0, 50, 100 MG/KG BW IN CORN OIL 5 D/WK FOR 103 WK (STUDY DURATION: 105 WK), Tumor Site: Type of Lesion: FORESTOMACH: SQUAMOUS CELL CARCINOMA, SQUAMOUS CELL PAPILLOMA); “active; positive” (Species: MOUSE, Strain/Sex: B6C3F1/MALE, Route: GAVAGE, Dose: 0, 50, 100 MG/KG IN CORN OIL 5 D/WK FOR 103 WK (STUDY DURATION: 104-105 WK), Dose: 0, 50, 100 MG/KG IN CORN OIL 5 D/WK FOR 103 WK (STUDY DURATION: 104-105 WK), Tumor Site: Type of Lesion: FORESTOMACH: SQUAMOUS CELL PAPILLOMA, SQUAMOUS CELL CARCINOMA); “active; positive” (Species: RAT, Strain/Sex: F344/FEMALE, Route: GAVAGE, Dose: 0, 12, 25, 50 MG/KG BW IN CORN OIL 5 D/WK FOR 103 WK (STUDY DURATION: 105 WK), Dose: 0, 12, 25, 50 MG/KG BW IN CORN OIL 5 D/WK FOR 103 WK (STUDY DURATION: 105 WK), Tumor Site: Type of Lesion: FORESTOMACH: SQUAMOUS CELL CARCINOMA, SQUAMOUS CELL PAPILLOMA); “active; positive” (Species: RAT, Strain/Sex: F344/FEMALE, Route: GAVAGE, Dose: 0, 12, 25, 50 MG/KG IN CORN OIL 5 D/WK FOR 103 WK (STUDY DURATION: 104-105 WK), Dose: 0, 12, 25, 50 MG/KG IN CORN OIL 5 D/WK FOR 103 WK (STUDY DURATION: 104-105 WK), Tumor Site: Type of Lesion: FORESTOMACH: SQUAMOUS CELL PAPILLOMA, SQUAMOUS CELL CARCINOMA). The carcinogen call runs as follows: (Species: RAT, Strain/Sex: F344/MALE, Route: GAVAGE, Dose: 0, 12, 25, 50 MG/KG IN CORN OIL 5 D/WK FOR 103 WK (STUDY DURATION: 104-105 WK), Dose: 0, 12, 25, 50 MG/KG IN CORN OIL 5 D/WK FOR 103 WK (STUDY DURATION: 104-105 WK), Tumor Site: Type of Lesion: FORESTOMACH: SQUAMOUS CELL PAPILLOMA, SQUAMOUS CELL CARCINOMA) “active; positive”; (Species: RAT, Strain/Sex: F344/MALE, Route: GAVAGE, Dose: 0, 12, 25, 50 MG/KG IN CORN OIL 5 D/WK FOR 103 WK (STUDY DURATION: 105 WK), Dose: 0, 12, 25, 50 MG/KG IN CORN OIL 5 D/WK FOR 103 WK (STUDY DURATION: 105 WK), Tumor Site: Type of Lesion: FORESTOMACH: SQUAMOUS CELL CARCINOMA, SQUAMOUS CELL PAPILLOMA) “active; positive”.

Consider `O=[N+]([O-])c1ccc2ncccc2c1`, for which the carcinogen call (Species: RAT, Strain/Sex: F344/MALE,FEMALE, Route: ORAL, Dose: 0.05% IN DIET FOR 2 YR) was “inactive; negative”.

As for `CCOCn1c(-c2ccc(Cl)cc2)c(C#N)c(Br)c1C(F)(F)F`, the carcinogen call is “inactive; negative (study details not given in source; purity 94.5%)” (Species: Mouse, Strain/Sex: CD-1/Female (65/group), Route: Oral, Dose: 0, 20, 120, 240 ppm in diet for 80 wk, Dose: 0, 20, 120, 240 ppm in diet for 80 wk); “inactive; negative (study details not given in source; purity 94.5%)” (Species: Mouse, Strain/Sex: CD-1/Male (65/group), Route: Oral, Dose: 0, 20, 120, 240 ppm in diet for 80 wk, Dose: 0, 20, 120, 240 ppm in diet for 80 wk); “inactive; negative (study details not given in source; purity 94.5%)” (Species: Rat, Strain/Sex: Sprague-Dawley/Female (65/group), Route: Oral, Dose: 0, 60, 300, 600 ppm in diet for up to 104 wk, Dose: 0, 60, 300, 600 ppm in diet for up to 104 wk); “inactive; negative (study details not given in source; purity 94.5%)” (Species: Rat, Strain/Sex: Sprague-Dawley/Male (65/group), Route: Oral, Dose: 0, 60, 300, 600 ppm in diet for up to 104 wk, Dose: 0, 60, 300, 600 ppm in diet for up to 104 wk).

On to `N#[N+]c1ccc(O)cc1`, for which the carcinogen call runs as follows: (Species: MOUSE, Strain/Sex: SWISS/FEMALE, Route: SUBCUTANEOUS, Dose: 0, 2 UG 1/WK FOR 36 WK (STUDY DURATION: 120 WK), Tumor Site: Type of Lesion: SUBCUTANEOUS TISSUE: TUMOR) “active; positive”; (Species: MOUSE, Strain/Sex: SWISS/FEMALE, Route: SUBCUTANEOUS, Dose: 0, 10 UG 1/WK FOR 2 WK (STUDY DURATION: 130 WK)) “inactive; negative”; (Species: MOUSE, Strain/Sex: SWISS/MALE, Route: SUBCUTANEOUS, Dose: 0, 2 UG 1/WK FOR 36 WK (STUDY DURATION: 110 WK), Tumor Site: Type of Lesion: SUBCUTANEOUS TISSUE: TUMOR) “active; positive”; (Species: MOUSE, Strain/Sex: SWISS/MALE, Route: SUBCUTANEOUS, Dose: 0, 10 UG 1/WK FOR 2 WK (STUDY DURATION: 130 WK)) “inactive; negative”.

With `CN(CC(O)CO)N=O` (stereo unspecified), the carcinogen call (Species: HAMSTER, Strain/Sex: SYRIAN/FEMALE, Route: GAVAGE, Dose: 0, 2.4 MG IN 0.2 ML OF WATER 1/WK FOR 41 WK FOR A TOTAL DOSE OF 98 MG (STUDY DURATION: 45 WK), Tumor Site: Type of Lesion: NASAL MUCOSA: CARCINOMA, ADENOMA) is “active; positive”.

As to `Cn1cnc([N+](=O)[O-])c1Sc1ncnc2nc[nH]c12`, the carcinogen call is “active; positive” (Species: MOUSE, Strain/Sex: B6C3F1/FEMALE, Route: ORAL, Dose: 0, 5, 20 PPM IN DIET FOR 100 WK (STUDY DURATION: 100 WK), Dose: 0, 5, 20 PPM IN DIET FOR 100 WK (STUDY DURATION: 100 WK), Tumor Site: Type of Lesion: HEMATOPOIETIC SYSTEM: LYMPHOMA, UTERUS: HEMANGIODOTHELIOMA); “inactive; negative” (Species: MOUSE, Strain/Sex: B6C3F1/MALE, Route: ORAL, Dose: 0, 5, 20 PPM IN DIET FOR 100 WK (STUDY DURATION: 100 WK), Dose: 0, 5, 20 PPM IN DIET FOR 100 WK (STUDY DURATION: 100 WK)); “active; positive” (Species: MOUSE, Strain/Sex: SWISS/MALE,FEMALE, Route: INTRAPERITONEAL, Dose: 40 MG/KG IN NAOH-SALINE 1/D ON D 1-4 AFTER BIRTH, Tumor Site: Type of Lesion: HEMATOPOIETIC SYSTEM (LEUKEMIA)); “active; positive” (Species: RAT, Strain/Sex: F344/MALE,FEMALE, Route: ORAL, Dose: 150 MG/KG IN DIET FOR 52 WK, Tumor Site: Type of Lesion: EAR: SQUAMOUS CELL CARCINOMA); “active; positive” (Species: RAT, Strain/Sex: SPRAGUE-DAWLEY/FEMALE, Route: ORAL, Dose: 1.5, 2.2 G/RAT IN DIET (ESTIMATED TOTAL), Tumor Site: Type of Lesion: THYMUS GLAND: LYMPHOMA, EAR (DUCT): SQUAMOUS CELL CARCINOMA).

The record behind these values is PubChem BioAssay AID1259411 (Chemical Carcinogenesis Research Information System (CCRIS), 2018).
